Values belong to the compound of their own block, whether it stands above or below them.
How the values were obtained:
bacteriophage Φ6 = conditions: platelet concentrates, normal oxygen tension, UVA; cited from earlier work
[1] = system: non-enveloped parvoviruses; conditions: cited from earlier work
Water solubility = type: physicochemical
Excerpt: Riboflavin N-oxide, is one example of a flavin N-oxide, it is water soluble and electrically neutral. Additionally, upon fragmentation of the neutral radical, riboflavin N-oxide forms the hydroxyl radical, which damages the nucleic acid, and riboflavin, vitamin B2, which is generally regarded as safe in humans.
In the methods of the present invention, the flavin N-oxides are introduced to the composition containing the blood products. It is preferred that the flavin N-oxides of the present invention are water-soluble. By “water soluble” we mean that it is preferred that the solubility of the flavin N-oxides is at least 100 micromolar in water. An exemplary flavin N-oxide for the methods of the present invention is riboflavin N-oxide. Once introduced to the blood product composition, riboflavin N-oxide, which is electrically neutral, may passively transport into cells, where it is enzymatically activated to form a radical anion. Additionally, riboflavin N-oxide may be activated by electromagnetic radiation. When electromagnetic radiation is used as the activator, the wavelength of light is preferably in the visible region.

[2] = system: PA-Lymphoblastoid Cell Line; assay: PA-Lymphoblastoid cell viability under oxygen deprivation in the presence of sensitizers; type: cell-based; conditions: PA-Lymphoblastoid cells; for cell count at Time (hour) 0 / cell count at Time (hour) 4 / cell count at Time (hour) 20: solutions and cells bubbled with nitrogen 15 minutes; for cell count at Time (hour) 0: time 0 hour; for cell count at Time (hour) 4: time 4 hour; for cell count at Time (hour) 20: time 20 hour
Procedure: PA-Lymphoblastoid Cell Line: Study of the effect of oxygen deprivation in the presence of 3 sensitizers Six solutions were prepared having the solutions and the cells from each of the 6 sets were “bubbled” with nitrogen separately for 15 minutes before being mixed.
The results of this study are shown graphically in FIG. 5.

Structure (SMILES): COc1c2occc2cc2ccc(=O)oc12 [8-MOP]
inactivation of the virus bacteriophage Φ6 (bacteriophage Φ6): completely inactivate

Structure (SMILES): Cc1oc2c(C)c3oc(=O)cc(C)c3cc2c1CN [AMT]
potency towards the non-enveloped parvoviruses [1]: limited potency | inactivation of the virus bacteriophage Φ6 (bacteriophage Φ6): completely inactivate

water solubility (Water solubility): water soluble
Structure (SMILES): Cc1cc2c(cc1C)[n+]([O-])c1c(=O)[nH]c(=O)nc-1n2CC(O)C(O)C(O)CO (centres unmarked) [RBO, riboflavin N-oxide]
hypoxic toxicity ([2]; oxygen deprivation): high hypoxic toxicity | cell count at Time (hour) 0 [2]: 0.45 million cells/mL | cell count at Time (hour) 4 [2]: 0.46 million cells/mL | cell count at Time (hour) 20 [2]: 0.06 million cells/mL

Structure (SMILES): Cc1cc2nc3c(=O)[nH]c(=O)nc-3n(C[C@H](O)[C@H](O)[C@H](O)CO)c2cc1C [Riboflavin (RB), Riboflavin]
cell count at Time (hour) 0 [2]: 1 million cells/mL | cell count at Time (hour) 4 [2]: 0.9 million cells/mL | cell count at Time (hour) 20 [2]: 0.63 million cells/mL

Structure (SMILES): Nc1n[n+]([O-])c2ccccc2[n+]1[O-] [Tirapazamine (TPZ), Tirapazamine]
cell count at Time (hour) 0 [2]: 0.4 million cells/mL | cell count at Time (hour) 4 [2]: 0.4 million cells/mL | cell count at Time (hour) 20 [2]: 0.36 million cells/mL
